Here are results for eleven molecules from ChEMBL document CHEMBL1201862, “PubChem BioAssay data set” (2004).

Common to all, as to experiment: DTP human tumour cell line panel, 48 h
In assay [1] the test system is CAKI-1.
For assay [2], the system named is DU-145.
The test system of assay [3] is EKVX.
The test system of assay [4] is HCT-15.
Assay [5] relates to HT-29.
Assay [6] concerns Hs-578T.
Assay [7] has as its system Malme-3M.
The test system of assay [8] is NCI-H226.
Assay [9] concerns NCI-H23.
For assay [10], the system named is NCI-H460.
The test system of assay [11] is OVCAR-4.
In assay [12] the test system is OVCAR-5.
The subject of assay [13] is OVCAR-8.
Assay [14] relates to SF-295.
Assay [15] deals with SK-MEL-28.
In assay [16] the test system is SNB-19.
For assay [17], the system named is SR.
In assay [18] the test system is UACC-62.

Structures are written as SMILES.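 Following 48 hours of exposure in 96-well plates, responses at five concentrations were used to interpolate endpoints linearly. GI50 marks 50% less growth.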 Active and inactive are the calls of the source. Cut-off read from the data, not from the text of the source: active = GI50 up to about 1.1 µM and inactive = higher. A value given as a limit tells only on which side of the number the result lay.

Broadly, the GI50 is the concentration giving 50% growth inhibition. With `Cn1c(=O)c2nc(CCCCc3nc4ccccc4[nH]3)[nH]c2n(C)c1=O`, the GI50 in assay [1] was 50.8 µM (inactive); in assay [2], > 100 µM (inactive); in [3], > 100 µM (inactive); in assay [4], more than 100 µM; in assay [5] it was > 100 µM (inactive); in assay [6], 30.3 µM (inactive). The GI50 in assay [7] was > 100 µM (inactive); in assay [8] it was 78.3 µM (inactive); in [9], > 100 µM (inactive); in [10], > 100 µM (inactive); in [11] it was > 100 µM (inactive); in [12], > 100 µM (inactive). Besides, the GI50 in [13], in assay [14], in [15], in [16], in assay [17] and in assay [18] was > 100 µM (inactive) each time.
Regarding `N#CC(C#N)=CNCCN1CCN(C=C(C#N)C#N)CC1`, the GI50 in [1] was > 100 µM (inactive); in [2] it was > 100 µM (inactive); in assay [3], > 100 µM (inactive); in [4], more than 100 µM; in assay [5] it was > 100 µM (inactive); in assay [6], > 100 µM (inactive). For the same molecule, the GI50 in [7], in assay [8], in assay [9], in assay [10], in assay [11] and in assay [12] was > 100 µM (inactive) each time. The GI50 in [13], in [14], in assay [15], in assay [16], in assay [17] and in [18] was > 100 µM (inactive) in each case.
Regarding `C=C1C2CC3CCC2C(OC(=O)c2ccccc2C(=O)O)C13` (stereo not drawn), the GI50 in assay [1] was > 100 µM (inactive); in assay [2], > 100 µM (inactive); in [3], > 100 µM (inactive); in assay [4], more than 100 µM; in assay [5], > 100 µM (inactive); in assay [6] it was > 100 µM (inactive). For the same molecule, the GI50 in [7], in assay [8], in assay [9], in assay [10], in assay [11] and in [12] was > 100 µM (inactive) each time. Also, the GI50 in assay [13], in assay [14], in assay [15], in assay [16], in [17] and in assay [18] was > 100 µM (inactive) throughout.
`O=C(Nc1ccccc1)OCCN=c1c2ccccc2ccc2ccccc12`: the GI50 in [1] was 26.4 µM (inactive); in assay [2] it was 28.8 µM (inactive); in assay [3], 24.9 µM (inactive); in assay [4], 26.1 µM; in assay [5], 17.2 µM (inactive); in assay [6], 11.5 µM (inactive). Besides, the GI50 is 18.7 µM (inactive) in [7]; 32.1 µM (inactive) in assay [8]; 35.1 µM (inactive) in [9]; 22.8 µM (inactive) in assay [10]; 25.8 µM (inactive) in assay [11]; 41.5 µM (inactive) in assay [12]. Further, the GI50 in assay [13] is 26.5 µM (inactive); in assay [14], 14 µM (inactive); in assay [15] it was 23.7 µM (inactive); in assay [16] it was 15.9 µM (inactive); in assay [17] it was 18.2 µM (inactive); in assay [18], 15 µM (inactive).
Regarding `O=C1CSC(/C=C/c2ccccc2)N1c1ccc(-n2c(-c3ccccc3)nc3ccccc3c2=O)cc1` (stereo not drawn), the GI50 was > 100 µM (inactive) in assay [1]; > 100 µM (inactive) in assay [2]; > 100 µM (inactive) in [3]; 86.9 µM in assay [4]; > 100 µM (inactive) in assay [5]; > 100 µM (inactive) in assay [6]. The GI50 in [7] was > 100 µM (inactive); in assay [8], 48.8 µM (inactive); in [9] it was > 100 µM (inactive); in assay [10] it was 87.3 µM (inactive); in assay [11], 19.4 µM (inactive); in [12], > 100 µM (inactive). The GI50 in assay [13] was > 100 µM (inactive); in assay [14] it was > 100 µM (inactive); in assay [15] it was > 100 µM (inactive); in [16], > 100 µM (inactive); in assay [17], 37.1 µM (inactive); in assay [18], 45.1 µM (inactive).
Consider `O=c1[nH]nc(Cc2ccccc2)n1/N=C/c1c[nH]c2ccccc12`, for which the GI50 in assay [1] is 16.7 µM (inactive); in assay [2], > 100 µM (inactive); in assay [3] it was 95.1 µM (inactive); in [4], more than 100 µM; in assay [5], 71.6 µM (inactive); in assay [6], 25.4 µM (inactive). For the same molecule, the GI50 in assay [7] was 57.1 µM (inactive); in assay [8], > 100 µM (inactive); in assay [9] it was > 100 µM (inactive); in assay [10], > 100 µM (inactive); in assay [11], 42.5 µM (inactive); in assay [12], > 100 µM (inactive). Besides, the GI50 in assay [13] was > 100 µM (inactive); in assay [14], 27.7 µM (inactive); in [15], > 100 µM (inactive); in assay [16] it was 49.5 µM (inactive); in [17], > 100 µM (inactive); in assay [18], 41.6 µM (inactive).
As to `CCOC(=O)c1cc(C#N)[nH]c1-c1ccsc1`, the GI50 in assay [1] is 50.7 µM (inactive); in assay [2], 24.3 µM (inactive); in assay [3], 17.6 µM (inactive); in [4] it was 29.1 µM; in [5], 28.8 µM (inactive); in [6] it was 25.7 µM (inactive). The GI50 in assay [7] is 37.4 µM (inactive); in assay [8], 44.3 µM (inactive); in assay [9], 35.5 µM (inactive); in assay [10], 32.2 µM (inactive); in assay [11], 35.6 µM (inactive); in [12], 34.8 µM (inactive). Moreover, the GI50 in assay [13] is 36.6 µM (inactive); in [14] it was 38 µM (inactive); in assay [15], 40.2 µM (inactive); in assay [16], 56.1 µM (inactive); in assay [17], 11.8 µM (inactive); in assay [18], 47.1 µM (inactive).
As to `O=C1c2cccc3cc([N+](=O)[O-])cc(c23)C(=O)N1O`, the GI50 was 31.7 µM (inactive) in assay [1]; 37.5 µM (inactive) in assay [2]; 47.9 µM (inactive) in [3]; 32.7 µM in assay [4]; 31 µM (inactive) in assay [5]; 38.7 µM (inactive) in assay [6]. For the same molecule, the GI50 in [7] is 28.4 µM (inactive); in assay [8], 31 µM (inactive); in assay [9], 30.8 µM (inactive); in [10] it was 27.2 µM (inactive); in assay [11] it was 34.1 µM (inactive); in assay [12] it was 44.1 µM (inactive). Also, the GI50 in assay [13] is 44.5 µM (inactive); in assay [14], 46.1 µM (inactive); in assay [15], 45.8 µM (inactive); in [16], 43.9 µM (inactive); in assay [17], 24.5 µM (inactive); in [18] it was 23.9 µM (inactive).
Take `CC1(C)OCC(C2OC(=O)C(OCc3ccccc3)=C2OCc2ccccc2)O1` (stereo not drawn): the GI50 was 45.2 µM (inactive) in assay [1]; 81.1 µM (inactive) in assay [2]; 37.6 µM (inactive) in assay [3]; 30.9 µM in [4]; 51.4 µM (inactive) in assay [5]; 70.6 µM (inactive) in assay [6]. The GI50 in assay [7] was 29.9 µM (inactive); in [8], 32.7 µM (inactive); in assay [9], 18.4 µM (inactive); in [10], 41 µM (inactive); in assay [11], 42.2 µM (inactive); in assay [12] it was 60.1 µM (inactive). Besides, the GI50 was 50.4 µM (inactive) in assay [13]; 34 µM (inactive) in assay [14]; 65.6 µM (inactive) in [15]; 55.3 µM (inactive) in assay [16]; 28.4 µM (inactive) in assay [17]; 22.4 µM (inactive) in assay [18].
On to `C[C@]12CCC(=O)C=C1CC[C@@H]1[C@@H]2CC[C@]2(C)C(=O)[C@H](n3ccnc3)C[C@@H]12`, for which the GI50 is > 100 µM (inactive) in assay [1]; > 100 µM (inactive) in [2]; > 100 µM (inactive) in assay [3]; more than 100 µM in assay [4]; 27.4 µM (inactive) in [5]; > 100 µM (inactive) in [6]. Further, the GI50 in assay [7], in [8], in assay [9], in [10], in [11] and in assay [12] was > 100 µM (inactive) in each case. For the same molecule, the GI50 in assay [13] was > 100 µM (inactive); in assay [14] it was > 100 µM (inactive); in assay [15], > 100 µM (inactive); in assay [16] it was > 100 µM (inactive); in assay [17], 74.1 µM (inactive); in [18] it was > 100 µM (inactive).
As for `COc1ccc(OC)c(-c2cc(=O)c3c(OC)c(OC)c(OC)c(OC)c3o2)c1`, the GI50 in [1] was 40.6 µM (inactive); in assay [2], 25.8 µM (inactive); in [3], 33 µM (inactive); in assay [4], 21.3 µM; in assay [5], 33.6 µM (inactive); in assay [6] it was 37.6 µM (inactive). In addition, the GI50 in assay [7] was 24.3 µM (inactive); in [8] it was 26.2 µM (inactive); in assay [9] it was 30.1 µM (inactive); in [10] it was 25.4 µM (inactive); in assay [11], 20 µM (inactive); in [12], 49.1 µM (inactive). Also, the GI50 in assay [13] is 25.7 µM (inactive); in assay [14] it was 18.7 µM (inactive); in assay [15] it was 40.1 µM (inactive); in [16], 34.4 µM (inactive); in [17] it was 6.17 µM (inactive); in assay [18], 24.3 µM (inactive).
